The text below walks through data of article PMC5734604 (Journal of Medicinal Chemistry, 2017).

Test [1] addresses T1, human CB1 receptor (Homo sapiens, UniProt P21554). The test can be described thus: [35S]GTPγS binding antagonism assay, hCB1 HEK-293 membranes. The settings on record: recombinant human CB1 receptors on HEK-293 cell membranes, 30 °C; SD (n = 2) or SEM (n ≥ 3). It counts as biochemical.
In test [2] the target is T1, human CB1 receptor. The test can be described thus: biochemical. It counts as binding. The settings on record: for residence time: read-out: RT (residence time).
The target of test [3] is T1, human CB1 receptor. Conditions: association at 30 °C.
Test [4] deals with T1, human CB1 receptor.

“Also recorded” adds a separate entry of the source.

T1 sequence (P21554 whole entry): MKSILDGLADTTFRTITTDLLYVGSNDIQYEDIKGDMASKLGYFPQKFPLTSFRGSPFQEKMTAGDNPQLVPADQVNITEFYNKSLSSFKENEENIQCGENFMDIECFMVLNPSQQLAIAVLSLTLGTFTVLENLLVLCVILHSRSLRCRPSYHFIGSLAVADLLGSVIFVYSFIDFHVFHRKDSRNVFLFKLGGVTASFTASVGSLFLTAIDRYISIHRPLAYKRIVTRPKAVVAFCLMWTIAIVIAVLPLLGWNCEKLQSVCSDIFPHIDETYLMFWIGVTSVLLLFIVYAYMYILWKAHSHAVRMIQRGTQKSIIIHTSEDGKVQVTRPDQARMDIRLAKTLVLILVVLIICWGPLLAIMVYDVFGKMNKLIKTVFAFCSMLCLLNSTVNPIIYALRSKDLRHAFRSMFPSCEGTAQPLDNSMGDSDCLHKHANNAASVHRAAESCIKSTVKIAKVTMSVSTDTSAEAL

Turning to `Cc1c(C(=O)NN2CCCCC2)nc(-c2ccc(Cl)cc2Cl)n1-c1ccc(OS(=O)(=O)CCC(C)C)cc1` [11g, 4-(2-(2,4-Dichlorophenyl)-5-methyl-4-(piperidin-1-ylcarbamoyl)-1H-imidazol-1-yl)phenyl 3-methylbutane-1-sulfonate], the “[35S]GTPγS binding pIC50 ± SD or SEM” value on human CB1 receptor [1] is given as 8.9 ± 0.1.
For orientation: koff means a measure of how fast the partners let go of each other. As usually defined, the kon is a measure of how fast the partners come together. The low end stands for slow association, the high end for fast association. For the compound `CCCS(=O)(=O)Oc1ccc(-n2c(-c3ccc(Cl)cc3Cl)nc(C(=O)NN3CCCCC3)c2C)cc1` [11b, 4-(2-(2,4-Dichlorophenyl)-5-methyl-4-(piperidin-1-ylcarbamoyl)-1H-imidazol-1-yl)phenyl propane-1-sulfonate], at human CB1 receptor [2], the koff stood at 0.00022 s⁻¹, the kon worked out at 300000 M⁻¹ s⁻¹ and the residence time stood at 78 ± 5 min.
In the case of `CCCCS(=O)(=O)Oc1ccc(-n2c(-c3ccc(Cl)cc3Cl)nc(C(=O)NN3CCCCC3)c2C)cc1` [11e, 4-(2-(2,4-Dichlorophenyl)-5-methyl-4-(piperidin-1-ylcarbamoyl)-1H-imidazol-1-yl)phenyl butane-1-sulfonate], the “[35S]GTPγS binding pIC50 ± SD or SEM” value on human CB1 receptor [1] came to 8.9 ± 0.05.
Turning to `Cc1c(C(=O)Nc2ccc(F)nc2)nc(-c2ccc(Cl)cc2Cl)n1-c1ccc(OS(=O)(=O)CCC(F)(F)F)cc1` [14f, 4-(2-(2,4-Dichlorophenyl)-4-(6-fluoropyridin-3-ylcarbamoyl)-5-methyl-1H-imidazol-1-yl)phenyl 3,3,3-trifluoropropane-1-sulfonate], on human CB1 receptor [2], the koff was 0.00027 s⁻¹, the kon was found to be 720000 M⁻¹ s⁻¹ and the residence time is 62 ± 10 min.
As to `CCCCCCC(C)(C)c1ccc([C@@H]2C[C@H](O)CC[C@H]2CCCO)c(O)c1` [CP55940], at human CB1 receptor [3], the “time at which binding approached equilibrium” value is on record as “approximately 25 min”.
Consider `Cc1c(C(=O)Nc2ccc(C(F)(F)F)cn2)nc(-c2ccc(Cl)cc2Cl)n1-c1ccc(OS(=O)(=O)CCC(F)(F)F)cc1` [compound 28, 4-(2-(2,4-Dichlorophenyl)-5-methyl-4-(5-(trifluoromethyl)pyridin-2-ylcarbamoyl)-1H-imidazol-1-yl)phenyl 3,3,3-trifluoropropane-1-sulfonate], for which, at human CB1 receptor [2], the koff was 7.8e-05 s⁻¹, the kon is 350000 M⁻¹ s⁻¹ and the residence time was determined as 260 ± 56 min. Moreover, on human CB1 receptor [4], the “activity of compound alone (absence of CP55940)” value was “inverse agonism” and the “type of antagonism of CP55940 action” value is “insurmountable antagonism; also recorded: insurmountability”.
